Publication PMC7600788, “Sequence Permutation Generates Peptides with Different Antimicrobial and Antibiofilm Activities” (Pharmaceuticals, 2020)
No end group written: not given here.

Columns and labels:
[1] = system: S. aureus Mu50; assay type: cell-based, Staphylococcus aureus; conditions: Mu50
Protocol: (§1) The antimicrobial activity spectrum of the WW peptide series was performed on a panel of Gram-positive and -negative bacteria using the standard broth micro-dilution method with minor modifications as described. […] There was a small change in the case of Pseudomonas aeruginosa and Acinetobacter baumannii up to two-fold. Four-fold changes were found for Staphylococcus aureus, Staphylococcus epidermidis, Escherichia coli, and Bacillus subtilis. However, we observed over eight-fold MIC changes for Klebsiella pneumoniae and vancomycin-resistant enterococcus (VRE). […] We also observed more than eight-fold changes in minimal bacterial killing concentrations.
(§2) The antibacterial activity of peptides was evaluated using a standard broth microdilution protocol with minor modifications as previously described. In brief, logarithmic phase bacterial cultures (i.e., optical density at 600 nm ≈ 0.5) were diluted to OD600~0.001 and partitioned into a 96-well polystyrene microplate at 90 μL per well. After treatment with 10 μL of peptide solutions two-fold diluted to various concentrations, microplates were incubated at 37 °C overnight and read on a ChroMate 4300 Microplate Reader at 630 nm (GMI, Ramsey, MN). […] Minimal bactericidal concentration (MBC) was determined by plating the clear wells at MIC or above. The peptide concentration that caused no bacterial growth on the petri dish is MBC.

[2] = system: S. aureus USA300 LAC; assay type: cell-based, Staphylococcus aureus; conditions: USA300
Protocol: To gain additional insight, we also compared the effects of physiological saline and human serum on the antibacterial activities of WW291-WW298 using both E. coli and S. aureus (Table 3). In our assays, salts and serum were present during the entire course of the experiment. […] Thus, WW295 and WW298 stand out in terms of activity robustness (bold in Table 3).
as §2

[3] = system: E. coli ML35p; experiment: Simultaneous outer and inner membrane permeation (nitrocefin / ONPG); assay type: cell-based, Escherichia coli; conditions: 3.1 µM
Excerpt: To confirm the mechanism of action, we also performed membrane permeation using a reporter strain of E. coli ML35p. This strain enabled simultaneous monitoring of membrane permeation of both the inner and outer membranes of Gram-negative bacterium E. coli. Both WW295 and WW298 were included in the experiment. […] This is indicated by the sharp development of absorbance at 490 nm for nitrocefin (panel A) and at 420 nm for ONPG (panel B).
The E. coli ML-35p strain was utilized to probe the permeation of both the outer membrane (OM) and inner membrane (IM). This strain was engineered to have two membrane reporters. Nitrocefin is used for detection of OM permeabilization. Nitrocefin is excluded from the periplasm. […] The chromogenic cleavage product was spectrophotometrically monitored at 490 nm. […] However, permeabilization of the IM helps ONPG to enter cytoplasm and get cleaved by cytoplasmic β-galactosidase into o-nitrophenol, which can be detected spectrophotometrically at 420 nm. […] Absorbances at both 490 and at 420 nm were monitored using FLUOstar Omega (BMG, Labtech, NC, USA) simultaneously. After shaking at 100 rpm, readings were taken every 2 min for a total of 40 min at 37 °C. Data were analyzed using the MARS data analysis software provided by the manufacturer and representative plots were made using the GraphPad Prism 7 software.

[4] = system: P. aeruginosa PAO1; assay type: cell-based, Pseudomonas aeruginosa; conditions: PAO1
Protocol: as §1, §2

[5] = system: S. aureus USA300 LAC; experiment: Inhibition of biofilm attachment (XTT); assay type: cell-based, Staphylococcus aureus; conditions: concentration series, Figure 6A
Excerpt: Antimicrobial effects of the peptides are different on diverse forms of bacteria. The free and motile forms cultivated in laboratories are the planktonic bacteria onto which the peptides and antibiotics can have direct effects. However, the activity of the microbicides can be reduced to the biofilm forms where bacteria are less exposed and hidden inside the shield. The development of the biofilms starts with the attachment of the individual cells on the substratum followed by biofilm growth and maturation into more solid biomass. We tested the ability of WW295 and WW298 in fighting the biofilms of S. aureus USA300 LAC at the two stages. […] These 96-well commercial plates were pre-treated commercially with tissue culture to enhance cell adhesion.
This experiment was performed to measure the ability of the peptide to inhibit bacterial attachment, the initial step for biofilm formation. In short, an overnight culture of S. aureus USA300 was grown in TSB media to an optical density (600 nm) of ∼1.0. […] Live cells in the biofilms were then quantitated using XTT [2,3-bis(2-methyloxy-4-nitro-5-sulfophenyl)-2H-tertazolium-5-carboxanilide] assay by following the manufacturer’s instructions with modifications. […] Absorbance at 450 nm (only media with XTT containing wells served as the blank) was obtained using a Chromate^TM microtiter plate reader. […]

[6] = system: human red blood cells; experiment: Hemolytic assay; assay type: cell-based; conditions: red cells of human
Protocol: (§3) Hemolytic assays of peptides were performed as previously described. Briefly, human red blood cells (hRBCs) obtained from UNMC Blood Bank, or chicken or porcine blood cells purchased from commercial sources as previously described, were washed three times with phosphate buffer saline (PBS) and diluted to a 2% solution (V/v). After peptide treatment, incubation at 37 °C for one hour, and centrifugation at 13,000 rpm, aliquots of the supernatant were carefully transferred to a fresh 96-well microplate. The amount of hemoglobin released was measured at 545 nm. The percent lysis was calculated by assuming 100% release when human blood cells were treated with 2% Triton X-100, and 0% release when incubated with PBS buffer. The peptide concentration that caused 50% lysis of hRBCs is defined as HC50.

[7] = system: chicken red blood cells; experiment: Hemolytic assay; assay type: cell-based
Protocol: as §3

[8] = system: Pig RBC; experiment: Hemolytic assay; assay type: cell-based
Protocol: as §3

With RKIWWWWL [WW295] the “Minimal Inhibitory Concentration (MIC), SA” value [1] was 12.5 µM, the “MIC, +150 mM NaCl” value [2] was 3.1 µM and the “MIC, +10% Human Serum” value [2] was 12.5 µM. The “MIC, TSB” value [2] was 3.1 µM, the “outer and inner membrane permeation (nitrocefin 490 nm, ONPG 420 nm)” value [3] was “entered both outer and inner membranes” and the “Minimal Inhibitory Concentration (MIC), PA” value [4] was 25 to 50 µM. The “effect on surface adherence of MRSA (in words)” value [5] was “did not show any effects”, the “Human RBC, concentration that caused 50% red blood cell lysis (HC50)” value [6] was 57 µM and the “Chicken RBC, concentration that caused 50% red blood cell lysis (HC50)” value [7] was 100 µM. For the same sequence, the “Pig RBC, concentration that caused 50% red blood cell lysis (HC50)” value [8] was >100 µM.
